In patent US9802992B2, “Cell into which protein, which can serve as polymerization nucleus of protein polymer, or polymer thereof is introduced, and method for production of the cell” (TOKYO ME[…] OF MEDICAL SCIENCE, priority 2005, dated 2017):

Key:
α-synuclein = target: T1, α-synuclein (Homo sapiens, UniProt P37840); assay: Inhibition of fibrillization of α-synuclein in vitro (thioflavin S fluorescence); format: biochemical; conditions: 2 mg/mL α-synuclein, shaking at 37° C., 20 μM Gossypetin, compared with sample without Gossypetin (FIG. 7)
T1 construct: made in house; host or cells: E. coli BL21(DE3), pRK172 vector
Procedure: Gossypetin, a polyphenol compound may be taken as an example of a candidate substance. Gossypetin is a flavonol contained in Gossypium herbaceum LINNE and is polyphenol compound used as a food additive. For example, it is possible to investigate whether Gossypetin inhibits fibrillization of α-synuclein in vitro by incubating α-synuclein in the presence of Gossypetin, adding thioflavin S to the solution after the reaction and measuring the fluorescence intensity. Thioflavin S is a test reagent which emits fluorescence upon binding to a protein which can serve as a polymerization nucleus of a protein polymer, or a protein polymer thereof, which are rich in β-sheet structure and which therefore can be used to determine the presence or absence of a protein which can serve as a polymerization nucleus of a protein polymer, or a protein polymer thereof. In contrast, since α-synuclein fibrils are rich in β-sheet structure, if Gossypetin inhibits fibrillization of α-synuclein, the fluorescence intensity should be lower than samples to which Gossypetin has not been added.
[…] Fluorescence intensity was measured using a Hitachi F4000 spectrophotometer (excitation wavelength 440 nm, fluorescence wavelength 520 nm).
2 mg/mL of α-synuclein was incubated with shaking at 37° C. in the presence or absence of 20 μM of Gossypetin. Fibril formation was measured by thioflavin S fluorescence. […]

[1] = test system: SH-SY5Y cells into which α-synuclein plasmid and fibrils are introduced (WT+FαS cells); assay: Cell death assay (LDH leakage) in the cellular model of α-synuclein proteinopathy; format: cell-based; conditions: Gossypetin (20 μM), incubated three days; without polyphenol approximately 50% (FIG. 8)
Procedure: A cell death assay was performed using cells into which pcDNA3-α-syn vector and α-synuclein fibrils are introduced, and which had been incubated for three days either in the presence or the absence of a fibrillization inhibitor. Gossypetin (20 μM) which is a type of polyphenol was used as the fibrillization inhibitor.
After incubation for three days, a portion of the cell media in the culture was harvested. The cells from the remaining media were prepared as a Tris-soluble fraction in the same manner as the Tris-soluble fraction described above. A cell death assay was performed on the harvested media and the Tris-soluble fraction using a CYTOTOX 96™ Non-Radioactive Cytotoxicity Assay Kit (Promega). The method was performed in accordance with the explanatory material accompanying the kit.
A cell death assay was performed on the following three types of cells: untreated cells (none), FαS cells into which only α-synuclein fibril was introduced, and WT+FαS cells into which fibril and α-synuclein plasmid DNA were introduced. After culturing the cells for three days, cell death was evaluated by lactate dehydrogenase (LDH) leakage assay. This assay is based on determining how much LDH originally inside the cell has leaked outside the cell as a result of cell death.
Gossypetin was added to SH-SY5Y cells into which α-synuclein plasmid and fibrils are introduced, and incubated for three days. […]

O=c1c(O)c(-c2ccc(O)c(O)c2)oc2c(O)c(O)cc(O)c12 [Gossypetin]
thioflavin S fluorescence intensity (fibril formation of α-synuclein) (α-synuclein): conspicuous decrease | rate of cell death [1]: conspicuous inhibition
